{"source": "patent US11279733B2", "about": "“Peptide antibiotics” (priority 2017, dated 2022)", "key": {"[1]": {"test_system": "bacterial strains", "assay": "Potentiation/synergy antimicrobial assay (checkerboard, FICI) with antibiotics", "assay_type": "cell-based", "settings": "GN_181 E. coli mcr-1", "method": "Potentiation/synergy antimicrobial assays were conducted in the same manner as the standard MICs described above, with the following modifications. Assays were performed in 384-well non-binding surface plates (NBS; Corning 3460) and in Cation-adjusted Mueller Hinton Broth (CA-MHB; BD, Cat. No. 212322) with a final assay volume of 50 μL once bacteria was added at 5×10^5 CFU/mL. Antibiotics and octapeptin compounds were plated in duplicate as a 2-fold concentration series, in a matrix checkerboard format. The bacterial cell density of the resultant assay plates after 18-20 h incubation at 37° C. was read by optical density 600 nm (OD600) using a Tecan M1000 Pro Spectrophotometer, and analysed for ≥90% growth inhibition compared to the growth control to determine active concentrations. Synergistic effect was calculated based on the fractional inhibitory concentration index (FICI) by the following equation, where synergy is deemed FICI 0.5: […]"}, "[2]": {"test_system": "A. baumannii ATCC 19606", "settings": "ATCC 19606", "procedure,_shortened": "(§1)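 Mid-log cultures grown in Mueller Hinton broth at 37° C were tested by 2-fold broth microdilution at 5×10^5 CFU/mL final. Compounds were dissolved in water and tested over a final range of 32 to 0.015 μg/mL.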"}, "[3]": {"test_system": "A. baumannii GN_093 PmxR", "settings": "GN 093 PmxR", "procedure,_shortened": "as §1"}, "[4]": {"test_system": "E. coli ATCC 25922", "settings": "ATCC 25922", "procedure,_shortened": "as §1"}, "[5]": {"test_system": "K. pneumoniae ATCC 13883", "settings": "ATCC 13883", "procedure,_shortened": "as §1"}, "[6]": {"test_system": "K. pneumoniae ATCC 700603, MDR", "settings": "ATCC 700603", "procedure,_shortened": "as §1"}, "[7]": {"test_system": "K. pneumoniae ATCC BAA-2146, NDM-1 pos", "settings": "ATCC BAA-2146", "procedure,_shortened": "as §1"}, "[8]": {"test_system": "K. pneumoniae GN_102 PmxR", "settings": "GN 102 PmxR", "procedure,_shortened": "as §1"}, "[9]": {"test_system": "K. pneumoniae GN_106, PmxR", "settings": "GN 106, PmxR", "procedure,_shortened": "as §1"}, "[10]": {"test_system": "P. aeruginosa ATCC 27853", "settings": "ATCC 27853", "procedure,_shortened": "as §1"}, "[11]": {"test_system": "P. aeruginosa GN_043, PmxR", "procedure,_shortened": "as §1"}, "[12]": {"test_system": "P. aeruginosa GN_105, PmxR", "settings": "GN 105, PmxR", "procedure,_shortened": "as §1"}, "[13]": {"test_system": "S. aureus ATCC 25923, MSSA", "settings": "ATCC 25923", "procedure,_shortened": "as §1"}}, "note": "Starred links: 1 amine or outer side, 2 acyl side, 3 side chain; linkers in the order of their positions; H or OH if unused. Positions of bridges follow the written chain, without caps; N, C: chain ends. Non-standard residues stand in square brackets, D forms with d. Residues, ends and D or L forms follow the SMILES beside them. *: point of attachment. Decanoyl(3R-OH) = CCCCCCC[C@@H](O)CC(=O)*; Phe(4-NH2) = Nc1ccc(C[C@H](N)C(=O)O)cc1; azaLeu = CC(C)CN(N[*:1])C(=O)[*:2]; dDab = NCC[C@@H](N)C(=O)O; Dab = NCC[C@H](N)C(=O)O", "data": [{"smiles": "CC(=O)NC[C@H]1CN(c2ccc(N3CCOCC3)c(F)c2)C(=O)O1", "note": "[Linezolid, linezolid]", "values": [{"measurement": "MIC of antibiotic with OctC4 at concn 0", "setting": "[1]; OctC4 0 μg/mL", "result": ">32", "unit": "mg/L"}, {"measurement": "MIC of antibiotic with OctC4 at concn 0.03", "setting": "[1]; OctC4 0.03 μg/mL", "result": 8, "unit": "mg/L"}, {"measurement": "MIC of antibiotic with OctC4 at concn 0.0625", "setting": "[1]; OctC4 0.0625 μg/mL", "result": 4, "unit": "mg/L"}, {"measurement": "MIC of antibiotic with OctC4 at concn 0.125", "setting": "[1]; OctC4 0.125 μg/mL", "result": 4, "unit": "mg/L"}, {"measurement": "MIC of antibiotic with OctC4 at concn 0.25", "setting": "[1]; OctC4 0.25 μg/mL", "result": 0.25, "unit": "mg/L"}]}, {"smiles": "CCCCCCC[C@@H](O)CC(=O)N[C@H](CCN)C(=O)N[C@H]1CCNC(=O)[C@H](CC(C)C)NC(=O)[C@H](Cc2ccc(N)cc2)NC(=O)[C@H](CCN)NC(=O)[C@H](CC(C)C)NC(=O)[C@@H](Cc2ccccc2)NC(=O)[C@H](CCN)NC1=O", "note": "[compound 8644, 3(R)OH-nC9CO-D-Dab-cyc[L-Dab-L-DAB-D-Phe-L-Leu-L-Dab-L-4NH2Phe-L-Leu]] ({Decanoyl(3R-OH)}-[dDab][Dab][Dab][dF]L[Dab][Phe(4-NH2)]L; lactam 2-C)", "values": [{"measurement": "MIC A. baumannii ATCC 19606", "setting": "[2]", "result": 16, "unit": "mg/L"}, {"measurement": "MIC A. baumannii GN_093 PmxR", "setting": "[3]", "result": ">32", "unit": "mg/L"}, {"measurement": "MIC E. coli ATCC 25922", "setting": "[4]", "result": 16, "unit": "mg/L"}, {"measurement": "MIC K. pneumoniae ATCC 13883", "setting": "[5]", "result": 8, "unit": "mg/L"}, {"measurement": "MIC K. pneumoniae ATCC 700603, MDR", "setting": "[6]", "result": 8, "unit": "mg/L"}, {"measurement": "MIC K. pneumoniae ATCC BAA-2146, NDM-1 pos", "setting": "[7]", "result": 4, "unit": "mg/L"}, {"measurement": "MIC K. pneumoniae GN_102 PmxR", "setting": "[8]", "result": 2, "unit": "mg/L"}, {"measurement": "MIC K. pneumoniae GN_106, PmxR", "setting": "[9]", "result": 8, "unit": "mg/L"}, {"measurement": "MIC P. aeruginosa ATCC 27853", "setting": "[10]", "result": 8, "unit": "mg/L"}, {"measurement": "MIC P. aeruginosa GN_043, PmxR", "setting": "[11]; polymyxin-resistant", "result": 8, "unit": "mg/L"}, {"measurement": "MIC P. aeruginosa GN_105, PmxR", "setting": "[12]", "result": 8, "unit": "mg/L"}, {"measurement": "MIC S. aureus ATCC 25923, MSSA", "setting": "[13]", "result": 32, "unit": "mg/L"}]}, {"smiles": "CCCCCCC[C@@H](O)CC(=O)N[C@H](CCN)C(=O)N[C@H]1CCNC(=O)[C@H](CC(C)C)NC(=O)[C@H](CCN)NC(=O)[C@H](CCN)NC(=O)N(CC(C)C)NC(=O)[C@@H](Cc2ccccc2)NC(=O)[C@H](CCN)NC1=O", "note": "[compound 8803, 3(R)OH-nC9CO-D-Dab-cyc[L-Dab-L-DAB-D-Phe-azaLeu-L-Dab-L-Dab-L-Leu]] ({Decanoyl(3R-OH)}-[dDab][Dab][Dab][dF][azaLeu][Dab][Dab]L; lactam 2-C)", "values": [{"measurement": "MIC A. baumannii ATCC 19606", "setting": "[2]", "result": 8, "unit": "mg/L"}, {"measurement": "MIC A. baumannii Cl Ptyela 10073 4512:2, PmxR", "setting": "[3]", "result": 32, "unit": "mg/L"}, {"measurement": "MIC E. coli ATCC 25922", "setting": "[4]", "result": 2, "unit": "mg/L"}, {"measurement": "MIC K. pneumoniae ATCC 13883", "setting": "[5]", "result": 8, "unit": "mg/L"}, {"measurement": "MIC K. pneumoniae ATCC 700603, MDR", "setting": "[6]", "result": 8, "unit": "mg/L"}, {"measurement": "MIC K. pneumoniae ATCC BAA-2146, NDM-1 pos", "setting": "[7]", "result": 8, "unit": "mg/L"}, {"measurement": "MIC K. pneumoniae Cl Koprana 10065 0661:1 PmxR", "setting": "[8]", "result": 2, "unit": "mg/L"}, {"measurement": "MIC K. pneumoniae Cl 183-16357-20352, PmxR", "setting": "[9]", "result": 4, "unit": "mg/L"}, {"measurement": "MIC P. aeruginosa ATCC 27853", "setting": "[10]", "result": 4, "unit": "mg/L"}, {"measurement": "MIC, P. aeruginosa FADDI-PA070, PmxR", "setting": "[11]; strain name as in Table 11", "result": 1, "unit": "mg/L"}, {"measurement": "MIC P. aeruginosa PA9704, PmxR", "setting": "[12]", "result": 2, "unit": "mg/L"}, {"measurement": "MIC S. aureus ATCC 25923, MSSA", "setting": "[13]", "result": 16, "unit": "mg/L"}]}]}
